Data reported in US10215749B2, “Ported parallel plate flow chamber and methods for use thereof” (priority 2013, dated 2019).

Test system: Human Aortic Endothelial Cells
Test: Gene expression differences (Affymetrix PRIMEVIEW microarray) under shear stress conditions with PI-103 treatment in a flow chamber
Assay type: cell-based
Protocol: Cells were cultured on a collagen I-coated growth surface under static conditions (no flow) until confluency was reached. Cells were then either exposed to fluid flow in a flow chamber at 0.2 or 1.0 Pa for 20 hours, or left in static culture for the same amount of time. At 20 hours, RNA was isolated from the cells using an Ambion MIRVANA™ RNA isolation kit (Life Technologies, Foster City Calif., United States of America) and processed for analysis on Affymetrix PRIMEVIEW™ arrays (Affymetrix, Inc., Santa Clara, Calif., United States of America). Three experiments were performed for each condition, providing replicates for microarray analysis.
Gene expression differences in Human Aortic Endothelial Cells were also tested under different shear stress conditions, using a flow chamber device, in the presence or absence of the PI3K/Akt and mTOR inhibitor PI-103 (3-[4-(4-morpholinyl)pyrido[3′,2′:4,5]furo[3,2-d]pyrimidin-2-yl]-phenol); CAS No. 371935-74-9) at a concentration of 100 nM.
Cells were grown on a collagen-I coated growth surface and treated with 100 nM PI-103 in the presence of flow. For the 4 hour time point, cells were exposed to fluid flow for 16 hours and treated with PI-103 for the last 4 hours in the presence of flow. Cells were also treated with PI-103 for the entire duration of flow (20 hours). Data was generated using RNA extracted as described in Example 1, and analyzed on Affymetrix PRIMEVIEW™ arrays (Affymetrix, Inc.,). Three experiments were performed for each condition, providing replicates for microarray analysis.

Oc1cccc(-c2nc(N3CCOCC3)c3oc4ncccc4c3n2)c1 [PI-103, 3-[4-(4-morpholinyl)pyrido[3′,2′:4,5]furo[3,2-d]pyrimidin-2-yl]-phenol]
No. of Genes Changed (0.2 Pa shear stress, 100 nM PI-103, 4 hr drug exposure, vs non-treated cells under same flow): 830 | No. of Genes Changed (0.2 Pa shear stress, 100 nM PI-103, 20 hr drug exposure, vs non-treated cells under same flow): 113 | No. of Genes Changed (1.0 Pa shear stress, 100 nM PI-103, 4 hr drug exposure, vs non-treated cells under same flow): 1563 | No. of Genes Changed (1.0 Pa shear stress, 100 nM PI-103, 20 hr drug exposure, vs non-treated cells under same flow): 119 | No. of Genes Changed (No Shear (static), 100 nM PI-103, 4 hr drug exposure, vs non-treated cells under same condition): 130 | No. of Genes Changed (No Shear (static), 100 nM PI-103, 20 hr drug exposure, vs non-treated cells under same condition): 159
